Test results published in PubChem BioAssay AID2060513 (Molecular Pharmacology Branch, DTP, NCI, 2025).
Blank lines part the entries; values can stand above or below the molecule they belong to.

System: 299254-011-R-J1-PDC complex spheroids viability
Assay: Anticancer human tumor 299254-011-R-J1-PDC patient-derived melanoma cell line growth inhibition [GQUAD]
Details: for IC50: curve of first compound; for viability, T/C: stronger effect = lower value
Excerpt: DNA G-quadruplex Stabilizer Agents in Combinations in Complex Spheroids
A high-throughput screen of multi-cell type tumor spheroids was designed to identify active combinations of DNA G-quadruplex stabilizer agents and targeted small molecules. Complex spheroids include a stromal component modeled by human endothelial cells (HUVEC) and fibroblasts modeled by human mesenchymal stem cells (MSCs). The concentration ranges selected for each drug and investigational agent were based upon clinically achievable concentrations if the clinical Cmax of the agent was known.
Compounds. The drugs and investigational agents: pidnarulex (CX-5461; NSC782164), APTO-253 (NSC789042), BRACO-19 (NSC847499), peposertib (NSC802822), ceralasertib (NSC780249), elimusertib (NSC800525), camonsertib (NSC841442), AZD-1390 (NSC803789), olaparib (NSC753686), talazoparib (NSC767125), ART-558 (NSC835418), sotorasib (NSC818433), MRTX-1133 (NSC836407), SN-38 (NSC673596), topotecan (NSC609699), etoposide (NSC141540), doxorubicin (NSC123127), gemcitabine (NSC613327), 5-fluorouracil (NSC19893), paclitaxel (NSC125973), vemurafenib (NSC761431), panobinostat (NSC761190), R-306465 (JNJ-16241199; NSC773264), adavosertib (NSC754352), TP-3654 (NSC805149), carboplatin (NSC241240), KSQ-4279 (NSC840948), and staurosporine (NSC755774) were obtained from the National Cancer Institute (NCI) Developmental Therapeutics Program Chemical Repository (34). The FDA-approved anticancer drug set is available from the NCI Developmental Therapeutics Program. […] The stock solutions were prepared in dimethyl sulfoxide (DMSO, Sigma-Aldrich, St. Louis, MO, cat. D2650) at 800-fold the tested concentration and stored at -70 degrees C prior to their use. All drugs and investigational agents were tested over a range starting from a high concentration at or near the clinical Cmax and decreasing in half-log increments. If the clinical Cmax for an agent had not been determined, the highest concentration tested was 10 microM.
2.3 Cell Culture. All cells were maintained in an incubator at 37 degrees C and 5% CO2 with 95% humidity. The PDC lines were cultured according to standard operating procedures established by the NCI PDMR. All PDCs were thawed and cultured in Matrigel-coated flasks prepared with a working solution of 1X Ham's F-12 nutrient mix, without supplementation (Invitrogen, cat. 11765054), 100 U/mL penicillin-streptomycin (Invitrogen, cat. 15140122), and 2.5% Matrigel (Corning Inc., cat. 354248) for the first three passages. The 857933-349-R-J2-PDC line was cultured in 6C/Colon 1B media, which includes advanced DMEM/F-12 (Thermo Fisher Scientific, cat. 12634028), 10 mM HEPES (Thermo Fisher Scientific, cat. 15630080), 1X GlutaMAX supplement (Thermo Fisher Scientific, cat. 35050061), 0.1 mg/mL primocin (InvivoGen, cat. ant-pm-2), 10% defined fetal bovine serum, heat inactivated (HyClone Laboratories Inc., cat. SH30070.03HI), 50% L-WRN conditioned media (ATCC, cat. CRL-3276), 1.25 mM N-Acetyl-L-cysteine (Sigma-Aldrich, cat. A9165), 10 mM nicotinamide (Sigma-Aldrich, cat. N0636), 1X B-27 supplement (Thermo Fisher Scientific, cat. 17504044), 1X N-2 supplement (Thermo Fisher Scientific, cat. 17502048), 10 microM Y-27632 dihydrochloride (Tocris Bioscience, cat. 1254), and 50 ng/mL human EGF recombinant protein (Thermo Fisher Scientific, cat. PHG0311). The 485176-168-R4-J1-PDC line was cultured in Panc media, which includes all 6C/Colon 1B media components plus 100 ng/mL human FGF-10 (Thermo Fisher Scientific, cat. 100-26), 500 nM SB-431542 (Selleckchem, cat. S1067), and gastrin (Tocris, cat. 3006).
[…]

[1] = second compound 0.0316 µM, first compound 0.0316 µM
[2] = second compound 0.0316 µM, first compound 0.1 µM
[3] = second compound 0.0316 µM, first compound 0.316 µM
[4] = second compound 0.0316 µM, first compound 1 µM
[5] = second compound 0.0316 µM, first compound 3.16 µM
[6] = second compound 0.0316 µM, first compound 10 µM
[7] = second compound 0.1 µM, first compound 0.0316 µM
[8] = second compound 0.1 µM, first compound 0.1 µM
[9] = second compound 0.1 µM, first compound 0.316 µM
[10] = second compound 0.1 µM, first compound 1 µM
[11] = second compound 0.1 µM, first compound 3.16 µM
[12] = second compound 0.1 µM, first compound 10 µM
[13] = second compound 0.316 µM, first compound 0.0316 µM
[14] = second compound 0.316 µM, first compound 0.1 µM
[15] = second compound 0.316 µM, first compound 0.316 µM
[16] = second compound 0.316 µM, first compound 1 µM
[17] = second compound 0.316 µM, first compound 3.16 µM
[18] = second compound 0.316 µM, first compound 10 µM
[19] = second compound 1 µM, first compound 0.0316 µM
[20] = second compound 1 µM, first compound 0.1 µM
[21] = second compound 1 µM, first compound 0.316 µM
[22] = second compound 1 µM, first compound 1 µM
[23] = second compound 1 µM, first compound 3.16 µM
[24] = second compound 1 µM, first compound 10 µM
[25] = second compound 3.16 µM, first compound 0.0316 µM
[26] = second compound 3.16 µM, first compound 0.1 µM
[27] = second compound 3.16 µM, first compound 0.316 µM
[28] = second compound 3.16 µM, first compound 1 µM
[29] = second compound 3.16 µM, first compound 3.16 µM
[30] = second compound 3.16 µM, first compound 10 µM
[31] = second compound 10 µM, first compound 0.0316 µM
[32] = second compound 10 µM, first compound 0.1 µM
[33] = second compound 10 µM, first compound 0.316 µM
[34] = second compound 10 µM, first compound 1 µM
[35] = second compound 10 µM, first compound 3.16 µM
[36] = second compound 10 µM, first compound 10 µM
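Further: spheroids exposed to the agents for seven days before readout.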
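Wherever viability, T/C is given: percent viability relative to DMSO vehicle control wells = 100%.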

IC50 (second compound 0.0316 µM): 114 nM | IC50 (second compound 0.1 µM): 121 nM | IC50 (second compound 0.316 µM): < 31.6 nM | IC50 (second compound 1 µM): < 31.6 nM | IC50 (second compound 3.16 µM): < 31.6 nM | IC50 (second compound 10 µM): < 31.6 nM
Structure (SMILES): CC1COCCN1c1cc(-c2ccnn2C)c2ccnc(-c3ccn[nH]3)c2n1 (centres undefined) + Cc1cnc(CNC(=O)c2c(=O)c3ccc(N4CCCN(C)CC4)nc3n3c2sc2ccccc23)cn1
viability, T/C [1]: 99.1% | viability, T/C [2]: 48.2% | viability, T/C [3]: 37.9% | viability, T/C [4]: 17.6% | viability, T/C [5]: 20% | viability, T/C [6]: 13.2% | viability, T/C [7]: 84.5% | viability, T/C [8]: 55.3% | viability, T/C [9]: 23.4% | viability, T/C [10]: 14.4% | viability, T/C [11]: 17.2% | viability, T/C [12]: 12.9% | viability, T/C [13]: 40.9% | viability, T/C [14]: 32.9% | viability, T/C [15]: 23.6% | viability, T/C [16]: 17.5% | viability, T/C [17]: 16.8% | viability, T/C [18]: 12.6% | viability, T/C [19]: 22% | viability, T/C [20]: 22.2% | viability, T/C [21]: 22.3% | viability, T/C [22]: 18.8% | viability, T/C [23]: 13% | viability, T/C [24]: 15.2% | viability, T/C [25]: 26.5% | viability, T/C [26]: 26.2% | viability, T/C [27]: 18% | viability, T/C [28]: 13.4% | viability, T/C [29]: 14.9% | viability, T/C [30]: 16.7% | viability, T/C [31]: 0.18% | viability, T/C [32]: 0.22% | viability, T/C [33]: 2.32% | viability, T/C [34]: 0.18% | viability, T/C [35]: 0.23% | viability, T/C [36]: 0.22%

IC50 (second compound 0.0316 µM): 1540 nM | IC50 (second compound 0.1 µM): 1500 nM | IC50 (second compound 0.316 µM): 1180 nM | IC50 (second compound 1 µM): 678 nM | IC50 (second compound 3.16 µM): 607 nM | IC50 (second compound 10 µM): < 31.6 nM
Structure (SMILES): C=CCn1c(=O)c2cnc(Nc3ccc(N4CCN(C)CC4)cc3)nc2n1-c1cccc(C(C)(C)O)n1 + Cc1cnc(CNC(=O)c2c(=O)c3ccc(N4CCCN(C)CC4)nc3n3c2sc2ccccc23)cn1
viability, T/C [1]: 118% | viability, T/C [2]: 109% | viability, T/C [3]: 100% | viability, T/C [4]: 55.2% | viability, T/C [5]: 41% | viability, T/C [6]: 25.3% | viability, T/C [7]: 109% | viability, T/C [8]: 112% | viability, T/C [9]: 77.3% | viability, T/C [10]: 64.2% | viability, T/C [11]: 31.5% | viability, T/C [12]: 27.1% | viability, T/C [13]: 89.8% | viability, T/C [14]: 125% | viability, T/C [15]: 88.2% | viability, T/C [16]: 55% | viability, T/C [17]: 30.1% | viability, T/C [18]: 30.1% | viability, T/C [19]: 75.3% | viability, T/C [20]: 80.8% | viability, T/C [21]: 71.9% | viability, T/C [22]: 38.6% | viability, T/C [23]: 27.9% | viability, T/C [24]: 24.4% | viability, T/C [25]: 73.3% | viability, T/C [26]: 74.9% | viability, T/C [27]: 55.5% | viability, T/C [28]: 44.4% | viability, T/C [29]: 28.9% | viability, T/C [30]: 20.2% | viability, T/C [31]: 19% | viability, T/C [32]: 15.2% | viability, T/C [33]: 41.8% | viability, T/C [34]: 36.9% | viability, T/C [35]: 0.45% | viability, T/C [36]: 0.32%
